Experimental data taken from patent publication US20180104264A1, “Method for Preparing Lyophilized Organic Solvent-Free Cyclophosphamide” (KOREA UNITED PHARM. INC., priority 2016, published 2018).

Test: Measurement of porosity (KOPTRI)
Format: physicochemical
Source text: Porosity measurement for the samples prepared by the present applicant was requested from the Korea Polymer Testing & Research Institute (KOPTRI), an authorized international testing agency.

O=P1(N(CCCl)CCCl)NCCCO1 (stereo not drawn) [Comparison 4, 2-[bis(2-chloroethyl)amino]tetrahydro-2H-1,3,2-oxazaphosphorin-2-oxide]
Apparent density: 1.31 g/mL | Porosity: 5.24% | Average diameter (pore size): 0.02 μm
